US12433908B2, “Use of nicotinamide riboside, nicotinic acid riboside, and nicotinamide mononucleotide, reduced nicotinyl compounds, and nicotinoyl compound derivatives in infant formula for healthy development” (ChromaDex, Inc., priority 2016, dated 2025)

Columns and labels:
milk proteins = test: WaterLOGSY NMR direct binding of 15N-labeled NR to milk proteins; conditions: increasing additions of milk
From the text: Whey protein fraction and casein protein have been identified as leading candidates to bind directly to and stabilize nicotinamide riboside (NR, I) in milk. The addition of these proteins in particular (either alone or in combination with other proteins) in order to stabilize nicotinamide riboside (NR, I) in liquid constitutes another embodiment of a method of delivery of the present invention. […] In this experiment, Water-Ligand Observed via Gradient Spectroscopy (WaterLOGSY NMR) was used to detect direct binding of stable, isotope-labeled (^15N) nicotinamide riboside (NR, I) to milk proteins. This is visualized as a concentration-dependent shift in the nicotinamide riboside (NR, I) spectra with increasing additions of milk. The concentric shapes shifts from left to right are the results of addition of no milk, 150 mL of milk, and […] of milk, respectively.

[1] = Blood chemistry analysis of piglets given NR solution; assay type: in vivo, piglets (Yorkshire/Hampshire crossbred)
From the text: Sixteen (n=16) Yorkshire/Hampshire crossbred piglets were obtained from the University of California, Davis Swine Teaching and Research Center and received on lactation day (“LD”) 14. Prior to arrive, the piglets were processed by the suppler between 1-3 days of age by administration of iron and an antibiotic ([…] for swine) as is common practice at the University of California, Davis Swine Facility. It is not common practice at the University of California, Davis Swine Facility to give a second dose of iron and antibiotics unless it becomes necessary. The piglets were from two litters (litters 15 and 17), weaned at 17 days of age, and randomly placed into one of two groups balanced for litter, sex, and weight. The animals were not acclimated to the facility at arrival and were subsequently acclimated to the test diet administration system. The piglets were weaned into a temperature-controlled room (approximately 27-29° C.) that contained 10 adjacent pens. The piglets were group-housed in the nursery room at the Swine Facility, which is an enclosed room with access restricted to trained personnel. The two groups were separated by one pen containing piglets of similar age. Each morning enough nicotinamide riboside (NR, I) in water solution was prepared for that day's dose administration according to the dose preparation protocol. At least 5 mL of prepared dose was reserved and immediately frozen after preparation each day for analysis of nicotinamide riboside (NR, I) for the purpose of confirming stability of the dose material. The doses were stored at refrigeration temperature while not in use. Nicotinamide riboside (NR, I) was dosed once per day in the morning and at the same time each day. Piglets in the control group received the same volume of plain water and were dosed on the same schedule. Starting on Day 1, animals in the nicotinamide riboside (NR, I) group were dosed once daily (in the morning) with 277 mg nicotinamide riboside (NR, I) per pig resuspended in water for seven days. After one week, animals were dosed once daily with 342 mg nicotinamide riboside (NR, I) per pig delivered in 2.5 mL for seven days. For Days 1 and 2, the nicotinamide riboside (NR, I) solution was prepared by resuspending 2770 mg nicotinamide riboside (NR, I) in 50 mL water, and 5 mL of this solution was delivered to each pig by squirting it into the back of the mouth using a 10 mL syringe with a piece of tubing attached to the end. To reduce the volume to more efficiently deliver the nicotinamide riboside (NR, I) solution, the 2770 mg was resuspended in 25 mL water and 2.5 mL of the solution was squirted into the back of the mouth of each pig using a 3 mL syringe for Days 3-7. For Days 8-14, 3420 mg nicotinamide riboside (NR, I) was resuspended in 25 mL water and 2.5 mL of this solution was delivered to each pig. Each day prior to dosing, 2.5 mL of the nicotinamide riboside (NR, I) (5 mL on Days 1 and 2) were placed into a separate tube and frozen. Blood was collected from each pig via jugular venipuncture on Days 1, 8, and 14. In each instance, blood was collected prior to dosing with nicotinamide riboside (NR, I). On Day 1, the sow was removed from the piglets for approximately three hours prior to sample collection. On Days 8 and 14, feed was removed from the animals' pens 12 hours prior to sample collection. Blood was collected into purple-top vacutainers for CBC analysis and into red-top vacutainers for blood chemistry analysis. CBC analysis was performed at IDEXX Laboratories in West Sacramento, California using the Sysmex XT-iV Vet Hematology Autoanalyzer (Sysmex America Inc., Lincolnshire, Illinois). Red-top tubes were spun to collect serum and the serum frozen. Frozen aliquots (500 μL) were submitted to the University of California, Davis Veterinary medicine Teaching Hospital Clinical Diagnostic Laboratory for Blood Chemistry Analysis using the Cobas 6000 C501 Clinical Chemistry Analyzer (Roche Diagnostics, Indianapolis, IN). […]

[2] = Wk 1, 277 mg/pig once daily oral
[3] = Wk 2, 342 mg/pig once daily oral Days 8-14

For `NC(=O)c1ccc[n+]([C@@H]2O[C@H](CO)[C@@H](O)[C@H]2O)c1` [NR, Nicotinamide riboside], the “direct binding to milk proteins” value (milk proteins) was “binds to proteins in milk”, the AST ([1]; Baseline, before dosing) was 45.5 U/L and the Albumin ([1]; Baseline, before dosing) was 3.74 g/dL. For the same molecule, the “Alkaline Phosphatase” value ([1]; Baseline, before dosing) was 720 U/L, the “Anion Gap” value ([1]; Baseline, before dosing) was 26.7 mmol/L and the BUN ([1]; Baseline, before dosing) was 5.8 mg/dL. The Bicarbonate ([1]; Baseline, before dosing) was 19.4 mmol/L, the “Bilirubin Total” value ([1]; Baseline, before dosing) was 0.40 mg/dL and the Calcium ([1]; Baseline, before dosing) was 10.6 mg/dL. For the same molecule, the Chloride ([1]; Baseline, before dosing) was 100.3 mmol/L, the “Creatine Kinase” value ([1]; Baseline, before dosing) was 1.30 ×10^3 U/L and the Creatinine ([1]; Baseline, before dosing) was 0.94 mg/dL. For the same molecule, the GGT ([1]; Baseline, before dosing) was 43.8 U/L, the Globulin ([1]; Baseline, before dosing) was 0.86 g/dL and the Glucose ([1]; Baseline, before dosing) was 117.8 mg/dL. For the same molecule, the Phosphorus ([1]; Baseline, before dosing) was 9.9 mg/dL, the Potassium ([1]; Baseline, before dosing) was 4.50 mmol/L and the Sodium ([1]; Baseline, before dosing) was 141.9 mmol/L. The “Total Protein” value ([1]; Baseline, before dosing) was 4.59 g/dL, the AST [1, 2] was 50.6 U/L and the Albumin [1, 2] was 3.43 g/dL. The “Alkaline Phosphatase” value [1, 2] was 326 U/L, the “Anion Gap” value [1, 2] was 21.1 mmol/L and the BUN [1, 2] was 10.9 mg/dL. For the same molecule, the Bicarbonate [1, 2] was 20.1 mmol/L, the “Bilirubin Total” value [1, 2] was 0.40 mg/dL and the Calcium [1, 2] was 9.0 mg/dL. For the same molecule, the Chloride [1, 2] was 96.1 mmol/L, the “Creatine Kinase” value [1, 2] was 0.88 ×10^3 U/L and the Creatinine [1, 2] was 1.07 mg/dL. It also gave a GGT [1, 2] of 41.4 U/L, a Globulin [1, 2] of 0.97 g/dL and a Glucose [1, 2] of 99.7 mg/dL. The Phosphorus [1, 2] was 6.5 mg/dL, the Potassium [1, 2] was 4.27 mmol/L and the Sodium [1, 2] was 133.1 mmol/L. For the same molecule, the “Total Protein” value [1, 2] was 4.40 g/dL, the AST [1, 3] was 36.7 U/L and the Albumin [1, 3] was 3.29 g/dL. The “Alkaline Phosphatase” value [1, 3] was 285 U/L, the “Anion Gap” value [1, 3] was 20.4 mmol/L and the BUN [1, 3] was 8.6 mg/dL. The Bicarbonate [1, 3] was 23.7 mmol/L, the “Bilirubin Total” value [1, 3] was 0.27 mg/dL and the Calcium [1, 3] was 9.8 mg/dL. The Chloride [1, 3] was 97.1 mmol/L, the “Creatine Kinase” value [1, 3] was 0.55 ×10^3 U/L and the Creatinine [1, 3] was 0.80 mg/dL. The GGT [1, 3] was 42.6 U/L, the Globulin [1, 3] was 1.20 g/dL and the Glucose [1, 3] was 77.1 mg/dL. For the same molecule, the Phosphorus [1, 3] was 7.5 mg/dL, the Potassium [1, 3] was 4.10 mmol/L and the Sodium [1, 3] was 137.3 mmol/L. For the same molecule, the “Total Protein” value [1, 3] was 4.49 g/dL.
